# System: 873145-292-R-J1-PDC complex spheroid viability
# Test: Anticancer human tumor 873145-292-R-J1-PDC patient-derived renal clear cell carcinoma cell line growth inhibition [POLQ]
# Conditions: for IC50: curve of first compound; for viability, T/C: stronger effect = lower value
# Method in brief: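 Complex spheroid viability model combining PDC tumour cells with endothelial (HUVEC) and MSC stromal cells. Novobiocin, ART-558 or RP6685 were tested singly and in combination with standard and investigational anticancer drugs. Each was titrated in half-log steps from near clinical Cmax, or from 10 microM where Cmax was unknown.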
# [1] = second compound 0.0316 µM, first compound 0.0316 µM
# [2] = second compound 0.0316 µM, first compound 0.1 µM
# [3] = second compound 0.0316 µM, first compound 0.316 µM
# [4] = second compound 0.0316 µM, first compound 1 µM
# [5] = second compound 0.0316 µM, first compound 3.16 µM
# [6] = second compound 0.0316 µM, first compound 10 µM
# [7] = second compound 0.1 µM, first compound 0.0316 µM
# [8] = second compound 0.1 µM, first compound 0.1 µM
# [9] = second compound 0.1 µM, first compound 0.316 µM
# [10] = second compound 0.1 µM, first compound 1 µM
# [11] = second compound 0.1 µM, first compound 3.16 µM
# [12] = second compound 0.1 µM, first compound 10 µM
# [13] = second compound 0.316 µM, first compound 0.0316 µM
# [14] = second compound 0.316 µM, first compound 0.1 µM
# [15] = second compound 0.316 µM, first compound 0.316 µM
# [16] = second compound 0.316 µM, first compound 1 µM
# [17] = second compound 0.316 µM, first compound 3.16 µM
# [18] = second compound 0.316 µM, first compound 10 µM
# [19] = second compound 1 µM, first compound 0.0316 µM
# [20] = second compound 1 µM, first compound 0.1 µM
# [21] = second compound 1 µM, first compound 0.316 µM
# [22] = second compound 1 µM, first compound 1 µM
# [23] = second compound 1 µM, first compound 3.16 µM
# [24] = second compound 1 µM, first compound 10 µM
# [25] = second compound 3.16 µM, first compound 0.0316 µM
# [26] = second compound 3.16 µM, first compound 0.1 µM
# [27] = second compound 3.16 µM, first compound 0.316 µM
# [28] = second compound 3.16 µM, first compound 1 µM
# [29] = second compound 3.16 µM, first compound 3.16 µM
# [30] = second compound 3.16 µM, first compound 10 µM
# [31] = second compound 10 µM, first compound 0.0316 µM
# [32] = second compound 10 µM, first compound 0.1 µM
# [33] = second compound 10 µM, first compound 0.316 µM
# [34] = second compound 10 µM, first compound 1 µM
# [35] = second compound 10 µM, first compound 3.16 µM
# [36] = second compound 10 µM, first compound 10 µM
# 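Note: spheroids exposed to compounds for 7 days before viability readout.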
# 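Throughout, for viability, T/C: luminescence signal used as surrogate for viable cell content; 100% = DMSO vehicle control viability.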
smiles,measurement,setting,value
COc1cc2cc(C(=O)CCC(=O)O)sc2cc1OC + COC1C(OC(N)=O)C(O)C(Oc2ccc3c(O)c(NC(=O)c4ccc(O)c(CC=C(C)C)c4)c(=O)oc3c2C)OC1(C)C,IC50,second compound 0.0316 µM,> 10 µM
same,IC50,second compound 0.1 µM,> 10 µM
same,IC50,second compound 0.316 µM,> 10 µM
same,IC50,second compound 1 µM,> 10 µM
same,IC50,second compound 3.16 µM,> 10 µM
same,IC50,second compound 10 µM,> 10 µM
same,"viability, T/C",[1],106%
same,"viability, T/C",[2],93.8%
same,"viability, T/C",[3],106%
same,"viability, T/C",[4],101%
same,"viability, T/C",[5],91.8%
same,"viability, T/C",[6],94.3%
same,"viability, T/C",[7],105%
same,"viability, T/C",[8],97.7%
same,"viability, T/C",[9],94.7%
same,"viability, T/C",[10],91.7%
same,"viability, T/C",[11],108%
same,"viability, T/C",[12],102%
same,"viability, T/C",[13],107%
same,"viability, T/C",[14],93.8%
same,"viability, T/C",[15],94.7%
same,"viability, T/C",[16],89.8%
same,"viability, T/C",[17],97.6%
same,"viability, T/C",[18],94.2%
same,"viability, T/C",[19],108%
same,"viability, T/C",[20],87.4%
same,"viability, T/C",[21],109%
same,"viability, T/C",[22],100%
same,"viability, T/C",[23],102%
same,"viability, T/C",[24],92.1%
same,"viability, T/C",[25],103%
same,"viability, T/C",[26],104%
same,"viability, T/C",[27],89%
same,"viability, T/C",[28],95.1%
same,"viability, T/C",[29],100%
same,"viability, T/C",[30],98.1%
same,"viability, T/C",[31],93.4%
same,"viability, T/C",[32],88.2%
same,"viability, T/C",[33],94.5%
same,"viability, T/C",[34],97.6%
same,"viability, T/C",[35],99.2%
same,"viability, T/C",[36],96.7%
O=C(Nc1ccc(O)c(NS(=O)(=O)c2ccc(F)cc2)c1)c1ccc(-c2ccccc2)cc1 + COC1C(OC(N)=O)C(O)C(Oc2ccc3c(O)c(NC(=O)c4ccc(O)c(CC=C(C)C)c4)c(=O)oc3c2C)OC1(C)C,IC50,second compound 0.0316 µM,> 10 µM
same,IC50,second compound 0.1 µM,> 10 µM
same,IC50,second compound 0.316 µM,> 10 µM
same,IC50,second compound 1 µM,> 10 µM
same,IC50,second compound 3.16 µM,> 10 µM
same,IC50,second compound 10 µM,> 10 µM
same,"viability, T/C",[1],113%
same,"viability, T/C",[2],99.8%
same,"viability, T/C",[3],95.7%
same,"viability, T/C",[4],101%
same,"viability, T/C",[5],98.5%
same,"viability, T/C",[6],101%
same,"viability, T/C",[7],99.9%
same,"viability, T/C",[8],106%
same,"viability, T/C",[9],88.9%
same,"viability, T/C",[10],94.8%
same,"viability, T/C",[11],97.6%
same,"viability, T/C",[12],101%
same,"viability, T/C",[13],105%
same,"viability, T/C",[14],92.7%
same,"viability, T/C",[15],96.2%
same,"viability, T/C",[16],98.6%
same,"viability, T/C",[17],110%
same,"viability, T/C",[18],98.1%
same,"viability, T/C",[19],106%
same,"viability, T/C",[20],103%
same,"viability, T/C",[21],91.6%
same,"viability, T/C",[22],97.2%
same,"viability, T/C",[23],104%
same,"viability, T/C",[24],91.1%
same,"viability, T/C",[25],97.3%
same,"viability, T/C",[26],94.8%
same,"viability, T/C",[27],102%
same,"viability, T/C",[28],92.9%
same,"viability, T/C",[29],99.2%
same,"viability, T/C",[30],109%
same,"viability, T/C",[31],105%
same,"viability, T/C",[32],95.2%
same,"viability, T/C",[33],92.5%
same,"viability, T/C",[34],100%
same,"viability, T/C",[35],108%
same,"viability, T/C",[36],108%

# — PubChem BioAssay AID1963834 (Molecular Pharmacology Branch, DTP, NCI, 2024)
